Data from patent publication US20080171718A1, “Methods and Compositions for Treating Cancer Using BCL-2 Antisense Oligomers, Tyrosine Kinase Inhibitors, and Chemotherapeutic Agents” (priority 2006, published 2008).
Entries after “also recorded” stand apart in the source; their conditions may differ.

Test system: A549 human lung cancer model
Assay: Tumor growth delay in A549 human lung cancer model in SCID mice
Assay type: in vivo
Details: for effect of the tyrosine kinase inhibitor in triplet therapy with Bcl-2 antisense and cytotoxic chemotherapeutic (comparison, interaction): A549 model, triplet with Genasense and Taxol/Abraxane
Method: Genasense® (G3139 by Genta, Bcl-2 inhibitor, also referred to in the Figures as “OBL”), Abraxane® (by Abraxis, paclitaxel), and Taxol® (by Bristol Myers Squibb, paclitaxel) were submitted for evaluation in combination with tyrosine kinase inhibitors against an A549 human lung cancer model in severe combined immune deficient (SCID) mice. Ten treatment groups having 10 mice per group were analyzed for tumor growth delay. G3139, Abraxane, and Taxol were administered via intravenous (IV) injection, and tyrosine kinase inhibitors were administered via oral gavage (PO).
The mice were injected with 100 μl tumor cells subcutaneously (SC). […] On the 15th day, treatment cycles of 5 days on and 2 days off began for a series of 3 cycles. During treatment, the mice were weighed twice daily. Tumor volume estimation (mm^3) was made in accordance with the formula (a^2×b/2), where “a” is the smallest diameter and “b” is the largest diameter. All procedures were completed in accordance with established animal care protocols.
Subconfluent cells were harvested by using 0.23% trypsin-EDTA (HyClone, Logan, Utah) and were counted using the trypan blue assay technique. Cells (99% viability) were re-suspended at the concentration of 10×10^6 cells/100 μl of sterile saline.
G3139 was prepared fresh each treatment day from a refrigerated stock solution of 30 mg/ml using sterile saline as the vehicle; while tyrosine kinase inhibitors in capsule form were brought up to the desired concentration using 10% DMSO and 90% sterile saline as the vehicle. Taxol (Infusion Solutions, Tucson, Az.) was prepared fresh each treatment day from a refrigerated stock solution of 6 mg/ml in Cremaphor EL/EtOH using sterile saline as the vehicle. Abraxane was prepared from a frozen stock of 5 mg/ml with the diluent of sterile saline. G3139 (20 mg/kg) was administered twice during each 5-day treatment cycle, on day 3 and on day 5. […] G3139 was administered at a volume of 0.1 ml using a 27 gauge needle (Becton Dickinson). Abraxane and Taxol were administered at a volume of 0.2 ml using a 27 gauge needle. […]

CNC(=O)c1cc(Oc2ccc(NC(=O)Nc3ccc(Cl)c(C(F)(F)F)c3)cc2)ccn1 [Nexavar, sorafenib]
effect of the tyrosine kinase inhibitor in triplet therapy with Bcl-2 antisense and cytotoxic chemotherapeutic (comparison, interaction): comparable to Sutent in the triplet therapy and more effective than Gleevec; also recorded: unexpectedly enhanced interaction | tumor growth / tumor growth inhibition compared to the negative control (tumor volume versus days post implantation) (FIG. 1-3, single agent, SC A549 tumors, 3 cycles of 5 days on/2 days off from day 15, Taxol/Abraxane 13.4 mg/kg IV day 1, Gleevec 100 mg/kg, Sutent/Nexavar 40 mg/kg PO daily): minor and substantially similar tumor growth inhibition

C#Cc1cccc(Nc2ncnc3cc(OCCOC)c(OCCOC)cc23)c1 [Tarceva, erlotinib]
effect of the tyrosine kinase inhibitor in triplet therapy with Bcl-2 antisense and cytotoxic chemotherapeutic (comparison, interaction): does not significantly enhance the efficacy
